Assay results taken from ChEMBL document CHEMBL1201862, “PubChem BioAssay data set” (2004).
Activity calls are given as the source filed them.

Columns and labels:
[1] = molecular target: Mitochondrial peptide methionine sulfoxide reductase (Bos taurus, UniProt P54149); assay: Absorbance-based biochemical high throughput dose response assay for activators of Methionine sulfoxide reductase A (MsrA).; type: functional
Melanocortin receptor 4 = Melanocortin receptor 4 (Homo sapiens, UniProt P32245); assay: inhibitors of MC4R cAMP signaling – cell-based, TR-FRET, biased antagonists, dose response (AID 602298); type: functional;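 further: antagonist potency against agonist-stimulated cAMP production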
Chain of Melanocortin receptor 4 (P32245 whole entry): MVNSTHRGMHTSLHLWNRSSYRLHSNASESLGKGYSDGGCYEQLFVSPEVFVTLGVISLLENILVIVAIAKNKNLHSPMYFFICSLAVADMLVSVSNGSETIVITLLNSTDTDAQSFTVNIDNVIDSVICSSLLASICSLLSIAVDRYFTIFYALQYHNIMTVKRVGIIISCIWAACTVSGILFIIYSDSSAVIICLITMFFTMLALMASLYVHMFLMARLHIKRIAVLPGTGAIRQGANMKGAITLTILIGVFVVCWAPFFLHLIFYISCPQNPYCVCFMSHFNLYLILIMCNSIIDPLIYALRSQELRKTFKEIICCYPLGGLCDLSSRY

Coagulation factor XII = molecular target: T1, Coagulation factor XII (Homo sapiens, UniProt P00748); type: functional;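 further: activated factor XIIa alpha cleaving a fluorogenic AMC peptide substrate; inhibitor potency from loss of enzyme activity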
T1 sequence (P00748 whole entry): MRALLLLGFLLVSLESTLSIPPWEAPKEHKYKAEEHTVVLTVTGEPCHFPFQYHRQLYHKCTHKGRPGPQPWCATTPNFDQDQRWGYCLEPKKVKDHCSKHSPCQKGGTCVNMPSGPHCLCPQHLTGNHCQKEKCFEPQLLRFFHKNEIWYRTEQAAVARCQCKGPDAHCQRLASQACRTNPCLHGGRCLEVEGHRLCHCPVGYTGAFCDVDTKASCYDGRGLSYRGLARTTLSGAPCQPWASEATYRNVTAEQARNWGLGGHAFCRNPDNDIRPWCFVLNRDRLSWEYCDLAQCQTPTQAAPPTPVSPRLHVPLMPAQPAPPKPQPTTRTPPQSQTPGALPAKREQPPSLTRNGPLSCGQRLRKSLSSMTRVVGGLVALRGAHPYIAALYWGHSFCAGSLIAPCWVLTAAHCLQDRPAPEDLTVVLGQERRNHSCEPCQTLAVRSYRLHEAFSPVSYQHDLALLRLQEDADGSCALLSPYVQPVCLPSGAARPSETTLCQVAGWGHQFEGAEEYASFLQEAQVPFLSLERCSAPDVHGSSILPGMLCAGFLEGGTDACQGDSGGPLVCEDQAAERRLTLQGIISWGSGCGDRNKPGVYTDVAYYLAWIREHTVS

[2] = cAMP pathway inhibition in counterscreen cell line – TR-FRET cAMP detection, counter-screen for MC4R biased antagonist project, dose response (AID 602305); type: functional, cell-based;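 further: U2OS cells stimulated with forskolin near its EC80 as the cAMP inducer; potency is for inhibition of forskolin-stimulated cAMP signaling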
[3] = molecular target: ALK tyrosine kinase receptor (Homo sapiens, UniProt Q9UM73); type: functional;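 further: ALK tested as one member of a kinase panel screen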
Chain of ALK tyrosine kinase receptor (Q9UM73 whole entry): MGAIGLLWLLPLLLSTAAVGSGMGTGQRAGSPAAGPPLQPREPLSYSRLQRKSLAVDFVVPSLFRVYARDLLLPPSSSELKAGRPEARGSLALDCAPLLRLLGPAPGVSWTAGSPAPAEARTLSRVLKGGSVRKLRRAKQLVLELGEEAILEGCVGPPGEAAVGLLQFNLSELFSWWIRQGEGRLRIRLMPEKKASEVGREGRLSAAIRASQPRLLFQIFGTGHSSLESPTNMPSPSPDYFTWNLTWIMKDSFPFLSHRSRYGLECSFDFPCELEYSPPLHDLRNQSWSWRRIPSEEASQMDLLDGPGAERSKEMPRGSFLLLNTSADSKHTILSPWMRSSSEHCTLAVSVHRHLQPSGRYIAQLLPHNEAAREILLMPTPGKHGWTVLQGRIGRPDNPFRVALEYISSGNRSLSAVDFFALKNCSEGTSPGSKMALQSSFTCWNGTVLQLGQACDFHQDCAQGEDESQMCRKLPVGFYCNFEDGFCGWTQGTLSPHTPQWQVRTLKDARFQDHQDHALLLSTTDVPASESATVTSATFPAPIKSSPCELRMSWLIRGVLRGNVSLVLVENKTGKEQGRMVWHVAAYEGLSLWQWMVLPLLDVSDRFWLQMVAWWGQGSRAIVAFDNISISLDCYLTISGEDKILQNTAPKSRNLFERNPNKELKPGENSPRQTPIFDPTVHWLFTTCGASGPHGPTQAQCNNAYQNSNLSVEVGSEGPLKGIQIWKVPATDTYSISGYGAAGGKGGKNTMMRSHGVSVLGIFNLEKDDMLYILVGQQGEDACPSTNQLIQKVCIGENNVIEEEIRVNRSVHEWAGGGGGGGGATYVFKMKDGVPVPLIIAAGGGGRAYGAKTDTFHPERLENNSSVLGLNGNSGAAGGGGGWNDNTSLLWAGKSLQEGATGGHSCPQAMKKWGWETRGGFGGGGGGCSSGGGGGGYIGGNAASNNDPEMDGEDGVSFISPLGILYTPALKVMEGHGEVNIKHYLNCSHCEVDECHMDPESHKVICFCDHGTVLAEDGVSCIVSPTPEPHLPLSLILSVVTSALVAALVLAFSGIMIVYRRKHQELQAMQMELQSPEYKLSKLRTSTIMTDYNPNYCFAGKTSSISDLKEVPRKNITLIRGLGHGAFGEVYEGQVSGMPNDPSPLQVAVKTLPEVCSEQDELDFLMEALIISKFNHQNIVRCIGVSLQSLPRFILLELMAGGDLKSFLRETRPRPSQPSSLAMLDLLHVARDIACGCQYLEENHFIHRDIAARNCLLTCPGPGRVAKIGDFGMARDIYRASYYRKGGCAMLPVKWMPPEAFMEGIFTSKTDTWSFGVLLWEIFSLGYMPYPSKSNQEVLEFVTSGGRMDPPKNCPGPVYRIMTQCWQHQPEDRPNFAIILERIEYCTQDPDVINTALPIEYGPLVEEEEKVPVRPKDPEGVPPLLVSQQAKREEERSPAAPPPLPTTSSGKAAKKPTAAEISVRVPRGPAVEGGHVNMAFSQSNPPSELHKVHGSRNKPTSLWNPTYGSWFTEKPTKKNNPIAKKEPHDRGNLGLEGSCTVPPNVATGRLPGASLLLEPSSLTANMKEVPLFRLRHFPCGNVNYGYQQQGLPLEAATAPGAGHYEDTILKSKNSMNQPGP

Aurora kinase A = Aurora kinase A (Homo sapiens, UniProt O14965); type: functional;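 further: value from the Navigating the Kinome kinase panel profiling, panel entry STK6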
Chain of Aurora kinase A (O14965 whole entry): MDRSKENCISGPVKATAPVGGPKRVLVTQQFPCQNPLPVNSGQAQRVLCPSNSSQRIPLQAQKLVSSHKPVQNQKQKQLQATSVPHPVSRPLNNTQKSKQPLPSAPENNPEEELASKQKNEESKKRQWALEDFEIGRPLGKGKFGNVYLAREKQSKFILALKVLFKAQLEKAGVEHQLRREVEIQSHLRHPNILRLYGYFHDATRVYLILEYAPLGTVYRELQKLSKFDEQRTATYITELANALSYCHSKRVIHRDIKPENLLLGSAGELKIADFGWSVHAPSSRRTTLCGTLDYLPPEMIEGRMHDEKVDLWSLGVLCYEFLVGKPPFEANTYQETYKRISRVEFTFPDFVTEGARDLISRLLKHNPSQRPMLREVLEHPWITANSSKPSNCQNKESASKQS

[4] = blockers of CAL PDZ–TMR peptide complex – biochemical, fluorescence polarization, untagged CAL PDZ, cherry-pick, set 2, dose response (AID 602254); type: functional
Aurora kinase B = Aurora kinase B (Homo sapiens, UniProt Q96GD4); type: functional
Chain of Aurora kinase B (Q96GD4 whole entry): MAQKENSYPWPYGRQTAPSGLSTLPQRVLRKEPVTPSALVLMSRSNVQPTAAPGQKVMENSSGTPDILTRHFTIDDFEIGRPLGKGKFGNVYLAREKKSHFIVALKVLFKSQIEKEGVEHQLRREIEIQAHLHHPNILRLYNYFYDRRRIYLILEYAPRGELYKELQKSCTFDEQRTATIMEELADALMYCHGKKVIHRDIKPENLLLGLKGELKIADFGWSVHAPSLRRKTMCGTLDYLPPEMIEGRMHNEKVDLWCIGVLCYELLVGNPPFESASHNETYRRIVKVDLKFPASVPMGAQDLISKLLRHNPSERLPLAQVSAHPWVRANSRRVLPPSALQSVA

cells = type: functional
[5] = Vero cell cytotoxicity, cytotoxicity control for M. tuberculosis inhibitor project, purified and synthesized samples, set 3 (AID 504684); type: functional

Chain of Mitochondrial peptide methionine sulfoxide reductase (P54149 whole entry): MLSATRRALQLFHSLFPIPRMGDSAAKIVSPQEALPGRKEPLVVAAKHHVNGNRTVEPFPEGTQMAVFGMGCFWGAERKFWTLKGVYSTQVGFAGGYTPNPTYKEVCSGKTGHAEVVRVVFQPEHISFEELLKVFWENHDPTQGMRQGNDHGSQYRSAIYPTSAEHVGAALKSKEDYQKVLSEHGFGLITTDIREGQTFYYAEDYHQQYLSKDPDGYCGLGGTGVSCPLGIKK

In the case of `CC(C)[C@H](NC(=O)c1ccccc1)C(=O)OCc1nc2scc(-c3ccccc3)c2c(=O)[nH]1`, the EC50 [1] is reported as > 104 µM (inactive).
For `O=C(Nc1nnc(-c2ccccc2)s1)c1cc(S(=O)(=O)N2CCOCC2)c(Cl)cc1Cl`, the IC50 (Melanocortin receptor 4) was > 2.39 µM (active), the IC50 (Coagulation factor XII) was > 50 µM (inactive) and the IC50 [2] was > 64.6 µM (inactive).
For `CCc1cccc(NC(=O)Nc2ccc(-c3csc4c(-c5cnn(C)c5)cnc(N)c34)cc2)c1`, the Ki [3] was 0.0251 µM (active) and the Ki (Aurora kinase A) was 0.00794 µM (active).
In the case of `COc1ccccc1N(CCOc1ccccc1)S(=O)(=O)c1ccccc1`, the AC50 [4] is reported as 77.2 µM (active).
In the case of `CCc1cccc(NC(=O)Nc2ccc(-c3c(C)oc4ncnc(N)c34)cc2)c1`, the Ki (Aurora kinase B) is reported as 0.0158 µM (active) and the Ki (Aurora kinase A) is reported as 0.158 µM (active).
In the case of `COC(=O)CCc1nc2c(C#N)c(-c3ccc(Cl)cc3)ccn2n1`, the IC50 (cells) is reported as 5.43 µM (active) and the CC50 [5] is reported as > 100 µM (active).
